Seven molecules from ChEMBL document CHEMBL3232805, “Alkaloids from the roots of Stichoneuron caudatum and their acetylcholinesterase inhibitory activities” (J Nat Prod, 2014) can be followed below.

As usually defined, the IC50 is the concentration at which inhibition is half-maximal.

The structures appear in SMILES notation.

The target in the experiment is Acetylcholinesterase (Homo sapiens, UniProt P22303). The experiment in a line: Inhibition of human AChE by spectrophotometry.
Sequence of Acetylcholinesterase (P22303 whole entry): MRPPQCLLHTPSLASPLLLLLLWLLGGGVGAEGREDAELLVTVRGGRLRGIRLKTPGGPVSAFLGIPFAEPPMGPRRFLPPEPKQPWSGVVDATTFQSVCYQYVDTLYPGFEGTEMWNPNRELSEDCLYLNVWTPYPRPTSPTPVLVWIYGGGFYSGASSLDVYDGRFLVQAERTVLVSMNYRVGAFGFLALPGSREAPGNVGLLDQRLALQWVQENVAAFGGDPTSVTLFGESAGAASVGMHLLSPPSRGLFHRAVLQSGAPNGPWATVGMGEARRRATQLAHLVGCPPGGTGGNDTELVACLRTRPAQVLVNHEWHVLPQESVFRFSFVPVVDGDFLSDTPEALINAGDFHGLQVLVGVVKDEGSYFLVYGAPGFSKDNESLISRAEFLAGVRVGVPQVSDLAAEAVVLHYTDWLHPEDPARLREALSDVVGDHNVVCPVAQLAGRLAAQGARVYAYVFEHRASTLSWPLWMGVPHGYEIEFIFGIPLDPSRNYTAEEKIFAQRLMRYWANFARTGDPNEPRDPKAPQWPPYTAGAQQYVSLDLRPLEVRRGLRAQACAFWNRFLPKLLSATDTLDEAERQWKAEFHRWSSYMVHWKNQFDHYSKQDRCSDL
Regarding `CC[C@H]1[C@H]2OC(=O)[C@](C)(O)[C@H]2[C@]23CC[C@@H]([C@@H]4C[C@@H](C)C(=O)O4)N2CCCC[C@@H]13`, the IC50 was 9.1 µM.
Next, `CC[C@H]1[C@H](C[C@H](C)C(=O)OC)O[C@]23CC[C@@H]([C@@H]4C[C@H](C)C(=O)O4)N2CCCC[C@]13O`: > 100 µM.
`CC[C@H]1[C@H](C[C@H](C)C(=O)OC)O[C@]23CC[C@@H]([C@@H]4C[C@H](C)C(=O)O4)N2CCCC[C@H]13` showed an IC50 of 71.5 µM. That is a double-digit micromolar value.
`CC[C@@H]1[C@H]2OC(=O)[C@](C)(O)[C@H]2[C@]23CC[C@@H]([C@@H]4C[C@@H](C)C(=O)O4)N2CCCC[C@@H]13`: the IC50 was > 100 µM.
For `CC[C@H]1[C@H]2OC(=O)[C@@](C)(O)[C@H]2[C@]23CC[C@@H]([C@@H]4C[C@H](C)C(=O)O4)N2CCCC[C@H]13` the value was > 100 µM; for `CC[C@@H]1[C@H]2OC(=O)[C@@](C)(O)[C@H]2[C@]23CC[C@@H]([C@@H]4C[C@H](C)C(=O)O4)N2CCCC[C@H]13`, 68.8 µM.
For `CC[C@H]1[C@@H]2OC(=O)[C@@](C)(O)[C@@H]2[C@@]23CC[C@@H]([C@@H]4C[C@H](C)C(=O)O4)N2CCCC[C@H]13` the value was 17.1 µM.
